Source: patent EP4603105A1, “PHARMACEUTICAL COMPOSITION CONTAINING CYCLIC COMPOUND HAVING SELECTIVE KRAS INHIBITORY EFFECT AGAINST HRAS AND NRAS” (CHUGAI SEIYAKU KABUSHIKI KAISHA, priority 2022, dated 2024)
Read-outs that look alike come from different tables or passages of the source.

Tests used:
[1] = biological target: GDP-bound KRAS wild-type protein (Homo sapiens, UniProt P01116); assay: Binding to KRAS by surface plasmon resonance (SPR), dissociation constant KD
Procedure, shortened: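 Each cycle, GDP-bound biotin-Avi RAS was captured (~100–300 RU), compound concentrations were injected low to high for 75 s each at 100 µL/min, then the chip was regenerated. Buffer: HBS pH 7.4, 10 mM MgCl2, 10 µM GDP, 1 mM DTT, 4% DMSO; 30°C. KD from a 1:1 binding model.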

[2] = test system: human lung cancer strain NCI-H441; assay: NCI-H441 cell proliferation inhibitory activity (CellTiter-Glo, 4 days); format: cell-based; conditions: read-out: NCl-H441 IC50
Procedure, shortened: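 Step one: dispense the test compound in serial DMSO dilutions. Step three: add the reagent and measure […].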

[3] = biological target: GDP-bound NRAS wild-type protein (Homo sapiens, UniProt P01111); assay: Binding to NRAS by surface plasmon resonance (SPR), KD and KD ratio to KRAS
Sequence of GDP-bound NRAS wild-type protein (P01111 whole entry): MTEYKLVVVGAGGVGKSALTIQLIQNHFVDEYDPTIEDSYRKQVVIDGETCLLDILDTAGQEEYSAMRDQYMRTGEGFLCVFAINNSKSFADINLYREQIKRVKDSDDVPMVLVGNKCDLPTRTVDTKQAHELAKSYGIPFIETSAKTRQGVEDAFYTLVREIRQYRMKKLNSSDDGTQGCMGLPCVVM
Procedure, shortened: (§1)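 Running buffer contained 10 µM GDP and 10 mM MgCl2 to keep RAS in the GDP state, with 4% DMSO at pH 7.4. Compounds were flowed at 100 µL/min in 75 s steps of rising concentration over captured biotin-Avi RAS at 30°C. Sensorgrams were fitted 1:1 for KD.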

HRAS wild-type protein = HRAS wild-type protein (Homo sapiens, UniProt P01112); assay: Binding to HRAS by surface plasmon resonance (SPR), KD and KD ratio to KRAS
Sequence of HRAS wild-type protein (P01112 whole entry): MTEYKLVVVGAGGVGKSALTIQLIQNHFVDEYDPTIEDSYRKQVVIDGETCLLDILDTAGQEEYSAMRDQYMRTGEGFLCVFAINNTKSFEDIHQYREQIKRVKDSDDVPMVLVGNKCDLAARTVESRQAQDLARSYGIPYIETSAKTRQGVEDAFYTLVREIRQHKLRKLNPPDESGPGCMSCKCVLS
Procedure, shortened: as §1

[4] = Single Cycle Kinetics, 1:1 binding model
[5] = 50% proliferation inhibitory concentration, four days
[6] = ratio of KD with respect to GDP-bound NRAS wild-type protein to KD with respect to KRAS
[7] = ratio of KD with respect to HRAS wild-type protein to KD with respect to KRAS
[8] = ratio of KD for GDP-bound NRAS wild-type protein to KD for KRAS
[9] = ratio of KD for HRAS wild-type protein to KD for KRAS

Sequence of GDP-bound KRAS wild-type protein (P01116 1-188 isoform P01116-2): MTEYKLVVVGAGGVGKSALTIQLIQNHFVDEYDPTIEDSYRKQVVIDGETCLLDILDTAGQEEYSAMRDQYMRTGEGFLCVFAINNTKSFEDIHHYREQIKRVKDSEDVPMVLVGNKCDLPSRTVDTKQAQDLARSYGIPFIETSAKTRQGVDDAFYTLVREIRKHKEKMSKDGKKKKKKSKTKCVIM

SMILES | Kd [1, 4] | IC50 [2, 5] | NRAS /KRAS [3, 6] | HRAS /KRAS (HRAS wild-type protein; [7]) | Kd ([1]; Single Cycle Kinetics) | IC50 ([2]; NCI-H441 cells, 4 days) | NRAS /KRAS [3, 8] | HRAS /KRAS (HRAS wild-type protein; [9]) | Kd ([1]; 1:1 binding model)
CC[C@H](C)[C@@H]1NC(=O)[C@H](CC)N(C)C(=O)C[C@@H](C(=O)N(C)C)N(C)C(=O)[C@H](C2CCCC2)N(C)C(=O)C2(CCC2)NC(=O)[C@@H]2C[C@H](C)CN2C(=O)[C@H](CCc2cc(F)c(C(F)(F)F)c(F)c2)NC(=O)CN(C)C(=O)[C@H](CC2CCC(F)(F)CC2)N2CC/C=C\C[C@@H](C2=O)N(C)C(=O)CN(C)C1=O [PP1457] | 0.15 nM | 30.4 nM | A (a compound having 10 or more and less than 20 is denoted as A) | A (a compound having 10 or more and less than 20 is denoted as A) |  |  |  |  | 
CCC[C@H]1C(=O)N[C@@H]([C@@H](C)CC)C(=O)N(C2CC2)CC(=O)N(C)[C@H]2C/C=C\CCN(C2=O)[C@@H](Cc2ccc(C(F)(F)F)cc2)C(=O)N(C)CC(=O)N[C@@H](CCc2ccc(C(F)(F)F)c(OC)c2)C(=O)N2C[C@H](OCC)C[C@H]2C(=O)OC2(CCC2)C(=O)N(C)[C@@H](C2CCCC2)C(=O)N(C)[C@H](C(=O)N(C)C)CC(=O)N1C [PP3369] |  |  |  |  | 0.86 nM | 9.1 nM | A (a compound having 10 or more and less than 20 is denoted as A) | A (a compound having 10 or more and less than 20 is denoted as A) | 
CC[C@H](C)[C@@H]1NC(=O)[C@H](COC)N(C)C(=O)C[C@@H](C(=O)N(C)C)N(C)C(=O)[C@H](C2CCCC2)N(C)C(=O)C2(CC(C)(C)C2)NC(=O)[C@@H]2C[C@H](C)CN2C(=O)[C@H](CCc2ccc(C(F)(F)F)c(OC)c2)NC(=O)CN(C)C(=O)[C@H](Cc2ccc(C)cc2)N2CC/C=C\C[C@@H](C2=O)N(C)C(=O)[C@@H]2C[C@H](C)CN2C1=O [PP2386] |  |  |  |  |  | 28.1 nM | A (a compound having 10 or more and less than 20 is denoted as A) | B (a compound having 3 or more and less than 10 is denoted as B) | 1.2 nM
CCC[C@H]1C(=O)N[C@@H]([C@@H](C)CC)C(=O)N(C)CC(=O)N(C)[C@H]2C/C=C\CCN(C2=O)[C@@H](Cc2ccc(C(F)(F)F)cc2)C(=O)N(C)CC(=O)N[C@@H](CCc2ccc(C(F)(F)F)c(OC)c2)C(=O)N2CC3(CC3)C[C@H]2C(=O)NC2(CCC2)C(=O)N(C)[C@@H](CC(C)(C)C)C(=O)N(C)[C@H](C(=O)N(C)C)CC(=O)N1C [PP3412] |  |  |  |  | 0.037 nM | 4.3 nM | A (a compound having 10 or more and less than 20 is denoted as A) | B (a compound having 3 or more and less than 10 is denoted as B) | 
CCC[C@H]1C(=O)N[C@@H]([C@@H](C)CC)C(=O)N2CCC[C@H]2C(=O)N(C)[C@H]2C/C=C\CCN(C2=O)[C@@H](Cc2ccc(C(F)F)cc2)C(=O)N(C)CC(=O)N[C@@H](CCc2ccc(Cl)c(Cl)c2)C(=O)N2C[C@H](OCC)C[C@H]2C(=O)NC2(CC(C)(C)C2)C(=O)N(C)[C@@H](C(CC)CC)C(=O)N(C)[C@H](C(=O)N(C)C)CC(=O)N1C [PP2637] |  |  |  |  |  | 61.4 nM | AA (a compound having 20 or more is denoted as AA) | A (a compound having 10 or more and less than 20 is denoted as A) | 1 nM
CCO[C@@H]1C[C@H]2C(=O)NC3(CCC3)C(=O)N(C)[C@@H](C3CCCC3)C(=O)N(C)[C@H](C(=O)N(C)C)CC(=O)N(C)[C@@H](CC(C)C)C(=O)N[C@@H]([C@@H](C)CC)C(=O)N(C)CC(=O)N(C)[C@H]3C/C(F)=C\CCN(C3=O)[C@@H](Cc3ccc(C)cc3)C(=O)N(C)CC(=O)N[C@@H](CCc3cc(F)c(C(F)(F)F)c(F)c3)C(=O)N2C1 [PP3515] |  |  |  |  | 0.28 nM | 17 nM | B (a compound having 3 or more and less than 10 is denoted as B) | B (a compound having 3 or more and less than 10 is denoted as B) | 
CCC(CC)[C@H]1C(=O)N(C)[C@H](C(=O)N(C)C)CC(=O)N(C)[C@@H](COC)C(=O)N[C@@H]([C@@H](C)CC)C(=O)N(C)CC(=O)N(C)[C@H]2C/C=C\CCN(C2=O)[C@@H](Cc2ccc(C(F)(F)F)cc2)C(=O)N(C)CC(=O)N[C@@H](CCc2ccc(Cl)c(Cl)c2)C(=O)N2C[C@H](OC3CCC3)C[C@H]2C(=O)NC2(CC(C)(C)C2)C(=O)N1C [PP2642] |  |  |  |  |  | 36.6 nM | AA (a compound having 20 or more is denoted as AA) | A (a compound having 10 or more and less than 20 is denoted as A) | 0.44 nM
CCC[C@H]1C(=O)N[C@@H]([C@@H](C)CC)C(=O)N(C)CC(=O)N(C)[C@H]2C/C=C\CCN(C2=O)[C@@H](Cc2ccc(C(F)(F)F)cc2)C(=O)N(C)CC(=O)N[C@@H](CCc2ccc(C(F)(F)F)c(Cl)c2)C(=O)N2CC3(CC3)C[C@H]2C(=O)NC2(CCC2)C(=O)N(C)[C@@H](CC(C)(C)C)C(=O)N(C)[C@H](C(=O)N(C)C)CC(=O)N1C [PP3418] |  |  |  |  | 0.041 nM | 5.4 nM | A (a compound having 10 or more and less than 20 is denoted as A) | B (a compound having 3 or more and less than 10 is denoted as B) | 
CC[C@H](C)[C@@H]1NC(=O)[C@H](CC2CC2)N(C)C(=O)C[C@@H](C)N(C)C(=O)[C@H](C2CCCC2)N(C)C(=O)C2(CCC2)NC(=O)[C@H](CC(F)F)N(C)C(=O)[C@H](CCc2cc(F)c(C(F)(F)F)c(F)c2)NC(=O)CN(C)C(=O)[C@H](Cc2ccc(C(F)(F)F)cc2)N2CC/C=C\C[C@@H](C2=O)N(C)C(=O)CN(C)C1=O [PP1405] | 8.5 nM | 466 nM | A (a compound having 10 or more and less than 20 is denoted as A) | A (a compound having 10 or more and less than 20 is denoted as A) |  |  |  |  | 
CCC[C@H]1C(=O)N[C@@H]([C@@H](C)CC)C(=O)N(C2CC2)CC(=O)N(C)[C@H]2C/C=C\CCN(C2=O)[C@@H](Cc2ccc(C)cc2)C(=O)N(C)CC(=O)N[C@@H](CCc2ccc(Cl)c(Cl)c2)C(=O)N2C[C@H](OCC)C[C@H]2C(=O)NC2(CC(C)(C)C2)C(=O)N(C)[C@@H](C2CCCC2)C(=O)N(C)[C@H](C(=O)N(C)C)CC(=O)N1C [PP2559] |  |  |  |  |  | 103 nM | A (a compound having 10 or more and less than 20 is denoted as A) | A (a compound having 10 or more and less than 20 is denoted as A) | 0.91 nM
CCO[C@@H]1C[C@H]2C(=O)NC3(CC(C)(C)C3)C(=O)N(C)[C@@H](C3CCCC3)C(=O)N(C)[C@H](C(=O)N(C)CC)CC(=O)N(C)[C@@H](COC)C(=O)N[C@@H]([C@@H](C)CC)C(=O)N(C)CC(=O)N(C)[C@H]3C/C=C\CCN(C3=O)[C@@H](Cc3ccc(C)cc3)C(=O)N(C)CC(=O)N[C@@H](CCc3cc(F)c(C(F)(F)F)c(F)c3)C(=O)N2C1 [PP2396] |  |  |  |  |  | 4.1 nM | A (a compound having 10 or more and less than 20 is denoted as A) | A (a compound having 10 or more and less than 20 is denoted as A) | 0.069 nM
CCOC[C@H]1C(=O)N[C@@H]([C@@H](C)CC)C(=O)N(C)CC(=O)N(C)[C@H]2C/C=C\CCN(C2=O)[C@@H](Cc2ccc(C)cc2)C(=O)N(C)CC(=O)N[C@@H](CCc2cc(F)c(C(F)(F)F)c(F)c2)C(=O)N2C[C@@H](C)C[C@H]2C(=O)NC2(CC(C)(C)C2)C(=O)N(C)[C@@H](C2CCCC2)C(=O)N(C)[C@H](C(=O)N(CC)CC)CC(=O)N1C [PP2407] |  |  |  |  |  | 60.1 nM | A (a compound having 10 or more and less than 20 is denoted as A) | A (a compound having 10 or more and less than 20 is denoted as A) | 0.5 nM
